From patent publication EP1116727B1, “PEPTIDE DERIVATIVE” (Takeda Chemical Industries, Ltd., priority 1998, dated 2000)
Non-standard residues stand in square brackets, D forms with d. Residues, ends and D or L forms follow the SMILES beside them. No end group written: not given here. Phe(4-Cl) = N[C@@H](Cc1ccc(Cl)cc1)C(=O)O; Cha = N[C@@H](CC1CCCCC1)C(=O)O; Nle = CCCC[C@H](N)C(=O)O

Biological target: T1, APJ (Homo sapiens, UniProt P35414)
T1 construct: expressed in transfected cells; host or cells: CHO cells (CHO-A10 clone)
T1 sequence (P35414 1-380): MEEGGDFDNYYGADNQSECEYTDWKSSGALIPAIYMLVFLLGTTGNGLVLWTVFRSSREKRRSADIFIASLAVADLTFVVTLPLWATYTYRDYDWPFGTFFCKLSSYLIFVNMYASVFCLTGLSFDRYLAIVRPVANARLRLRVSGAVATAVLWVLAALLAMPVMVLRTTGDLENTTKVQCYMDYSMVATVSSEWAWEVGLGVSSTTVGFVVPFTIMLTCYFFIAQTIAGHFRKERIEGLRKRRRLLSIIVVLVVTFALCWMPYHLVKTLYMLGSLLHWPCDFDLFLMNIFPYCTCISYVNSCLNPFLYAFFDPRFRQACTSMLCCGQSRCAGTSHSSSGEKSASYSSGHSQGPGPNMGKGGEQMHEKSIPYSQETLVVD
Assay: Suppression activity on forskolin stimulated cAMP production
Assay type: cell-based
Conditions: suppression of cAMP production stimulated with 1 µM forskolin; CHO-A10 clone cells; 37°C for 30 minutes; cAMP EIA
Experimental: Subsequently, after washing with 500 µl of the assay buffer once, 500 µl each of the sample dissolved in the assay buffer added with 1 µM of forskolin were put into each well to incubate at 37°C for 30 minutes. Wells incubated with assay buffer added with no forskolin were prepared to know the basic cAMP production of cells (basal level), and similarly, wells incubated with assay buffer added with forskolin were also prepared to know the maximum cAMP production with stimulation of foskolin (maximum level). After completion of incubation, each well was washed with 500 µl of the assay buffer once, added with 500 µl of the lysis buffer IB included in the cAMP EIA system (Amersham Pharmacia Biotech) and extraction of cAMP was carried out. Following the prescription for the kit, a portion of 100 µl each of the extracts was used to assay. The level of suppression activity on cAMP production was calculated by taking the difference between the maximum level and cAMP in the wells that was added with a sample (amount of the suppression of cAMP production), and by taking it as a percentage relative to the increased production (difference between maximum level and basal level) in cAMP associated with forskolin stimulation, and EC50 was determined based on the dose response curve.

Compound	EC50
CCCC[C@H](NC(=O)[C@@H]1CCCN1C(=O)CNC(=O)[C@H](CCCCN)NC(=O)[C@H](Cc1c[nH]cn1)NC(=O)[C@H](CO)NC(=O)[C@H](CC(C)C)NC(=O)[C@H](CCCNC(=N)N)NC(=O)[C@@H]1CCCN1C(=O)[C@H](CCCNC(=N)N)NC(=O)[C@H](CCC(N)=O)NC(=O)[C@H](CCCNC(=N)N)NC(=O)[C@H](CCCNC(=N)N)NC(=O)[C@H](Cc1ccccc1)NC(=O)[C@H](CCCCN)NC(=O)[C@H](CCCNC(=N)N)NC(=O)[C@H](CCCNC(=N)N)NC(=O)CNC(=O)CNC(=O)[C@H](CCC(N)=O)NC(=O)[C@H](Cc1c[nH]c2ccccc12)NC(=O)[C@@H]1CCCN1C(=O)CNC(=O)[C@@H]1CCCN1C(=O)CNC(=O)[C@H](CC(N)=O)NC(=O)[C@H](CCCNC(=N)N)NC(=O)[C@H](CO)NC(=O)CNC(=O)[C@H](CCCNC(=N)N)NC(=O)[C@@H]1CCCN1C(=O)[C@H](CCC(N)=O)NC(=O)[C@@H](NC(=O)[C@@H](N)CC(C)C)C(C)C)C(=O)N1CCC[C@H]1C(=O)N[C@@H](Cc1ccc(O)cc1)C(=O)O [Example 2] (H-LVQPRGSRNGPGPWQGGRRKFRRQRPRLSHKGP[Nle]PY-OH)	0.41 nM
CCCC[C@H](NC(=O)[C@@H]1CCCN1C(=O)CNC(=O)[C@H](CCCCN)NC(=O)[C@H](Cc1c[nH]cn1)NC(=O)[C@H](CO)NC(=O)[C@H](CC(C)C)NC(=O)[C@H](CCCNC(=N)N)NC(=O)[C@@H]1CCCN1C(=O)[C@H](CCCNC(=N)N)NC(=O)[C@@H]1CCC(=O)N1)C(=O)N1CCC[C@H]1C(=O)N[C@@H](Cc1ccc(O)cc1)C(=O)O [Example 4]	0.19 nM
CSCC[C@H](NC(=O)[C@@H]1CCCN1C(=O)CNC(=O)[C@H](CCCCN)NC(=O)[C@H](Cc1c[nH]cn1)NC(=O)[C@H](CO)NC(=O)[C@H](CC(C)C)NC(=O)[C@H](CCCNC(=N)N)NC(=O)[C@@H]1CCCN1C(=O)[C@@H](N)CCCNC(=N)N)C(=O)N1CCC[C@H]1C(=O)N[C@@H](Cc1ccc2ccccc2c1)C(=O)O [Example 30]	0.28 nM
CSCC[C@H](NC(=O)[C@@H]1CCCN1C(=O)CNC(=O)[C@H](CCCCN)NC(=O)[C@H](Cc1c[nH]cn1)NC(=O)[C@H](CO)NC(=O)[C@H](CC(C)C)NC(=O)[C@H](CCCNC(=N)N)NC(=O)[C@@H]1CCCN1C(=O)[C@@H](N)CCCNC(=N)N)C(=O)N[C@@H](Cc1ccc2ccccc2c1)C(=O)O [Example 31]	0.3 nM
CSCC[C@H](NC(=O)[C@@H]1CCCN1C(=O)CNC(=O)[C@H](CCCCN)NC(=O)[C@H](Cc1c[nH]cn1)NC(=O)[C@H](CO)NC(=O)[C@H](CC(C)C)NC(=O)[C@H](CCCNC(=N)N)NC(=O)[C@@H]1CCCN1C(=O)[C@@H](N)CCCNC(=N)N)C(=O)N1CCC[C@H]1C(=O)N[C@@H](Cc1ccc(Cl)cc1)C(=O)O [Example 32]	0.2 nM
CSCC[C@H](NC(=O)[C@@H]1CCCN1C(=O)CNC(=O)[C@H](CCCCN)NC(=O)[C@H](Cc1c[nH]cn1)NC(=O)[C@H](CO)NC(=O)[C@H](CC(C)C)NC(=O)[C@H](CCCNC(=N)N)NC(=O)[C@@H]1CCCN1C(=O)[C@@H](N)CCCNC(=N)N)C(=O)N[C@@H](Cc1ccc(Cl)cc1)C(=O)O [Example 33]	0.1 nM

Results, then the compound that gave them:

EC50	Compound
0.37 nM	CSCC[C@H](NC(=O)[C@@H]1CCCN1C(=O)CNC(=O)[C@H](CCCCN)NC(=O)[C@H](Cc1c[nH]cn1)NC(=O)[C@H](CO)NC(=O)[C@H](CC(C)C)NC(=O)[C@H](CCCNC(=N)N)NC(=O)[C@@H]1CCCN1C(=O)[C@@H](N)CCCNC(=N)N)C(=O)N[C@@H](CC1CCCCC1)C(=O)O [Example 34]
0.34 nM	CC(C)C[C@H](NC(=O)[C@H](CCCNC(=N)N)NC(=O)[C@@H]1CCCN1C(=O)[C@H](CCCNC(=N)N)NC(=O)[C@@H]1CCC(=O)N1)C(=O)N[C@@H](CO)C(=O)N[C@@H](Cc1c[nH]cn1)C(=O)N[C@@H](CCCCN)C(=O)NCC(=O)N1CCC[C@H]1C(=O)N[C@@H](CC1CCCCC1)C(=O)N1CCC[C@H]1C(=O)N[C@@H](Cc1ccccc1)C(=O)O [Example 35]
0.16 nM	CC(C)C[C@H](NC(=O)[C@H](CCCNC(=N)N)NC(=O)[C@@H]1CCCN1C(=O)[C@H](CCCNC(=N)N)NC(=O)[C@H](CCC(N)=O)NC(=O)[C@H](CCCNC(=N)N)NC(=O)[C@@H](N)CCCNC(=N)N)C(=O)N[C@@H](CO)C(=O)N[C@@H](Cc1c[nH]cn1)C(=O)N[C@@H](CCCCN)C(=O)NCC(=O)N1CCC[C@H]1C(=O)N[C@@H](CC1CCCCC1)C(=O)O [Example 36] (H-RRQRPRLSHKGP[Cha]-OH)
0.14 nM	CSCC[C@H](NC(=O)[C@@H]1CCCN1C(=O)CNC(=O)[C@H](CCCCN)NC(=O)[C@H](Cc1c[nH]cn1)NC(=O)[C@H](CO)NC(=O)[C@H](CC(C)C)NC(=O)[C@H](CCCNC(=N)N)NC(=O)[C@@H]1CCCN1C(=O)[C@H](CCCNC(=N)N)NC(=O)[C@H](CCC(N)=O)NC(=O)[C@H](CCCNC(=N)N)NC(=O)[C@@H](N)CCCNC(=N)N)C(=O)N1CCC[C@H]1C(=O)N[C@@H](Cc1ccc(Cl)cc1)C(=O)O [Example 37]
0.35 nM	CCCC[C@H](NC(=O)[C@H](Cc1c[nH]cn1)NC(=O)[C@H](CO)NC(=O)[C@H](CC(C)C)NC(=O)[C@H](CCCNC(=N)N)NC(=O)[C@@H]1CCCN1C(=O)[C@H](CCCNC(=N)N)NC(=O)[C@H](CCC(N)=O)NC(=O)[C@H](CCCNC(=N)N)NC(=O)[C@@H](N)CCCNC(=N)N)C(=O)NCC(=O)N1CCC[C@H]1C(=O)N[C@@H](CCSC)C(=O)N1CCC[C@H]1C(=O)N[C@@H](Cc1ccc(Cl)cc1)C(=O)O [Example 38] (H-RRQRPRLSH[Nle]GPMP[Phe(4-Cl)]-OH)
0.52 nM	LVQPRGSRNGPGPWQGGRRKFRRQRPRLSHKGPMPF [reference compound]
